Legend:
Ucp1 = test: UCP1 luciferase assay (Ucp1 up-regulation in differentiated inguinal adipocytes of Ucp1-luciferase knock-in mice); assay type: cell-based; conditions: Mus musculus, Adipocyte, 48 h; at 3 μM; 2 days treatment; luciferase activity; read-out: Ucp1 activation fold/corresponding concentration
Experimental: TEST EXAMPLE 1 UCP1 Luciferase Assay
Evaluating Compounds that Induce Ucp1 Up-Regulation
Ucp1-luciferase knock-in mice will be housed in cages and fed on standard chow diets (the detailed procedures please see reference 14). The 8-week-old mice will be killed by the cervical dislocation and put into 75% alcohol for 5 minutes. The inguinal adipose tissue will be dissected out and transferred to the three 10-cm petri dishes and washed with PBS for three times. The adipose tissue will be dissected and minced on a 10-cm petri dish for several minutes and then pipetted into 20 ml 0.1% collagenase solution in 50 ml conical tubes and digested at 37° C. for 1 hour. Next, 20 ml culture medium will be added to terminate the digestion and centrifuged for 10 minutes at 1000 rpm respectively. The supernatants will be removed and the pellets re-suspended in 10 mL culture medium and plated into 10-cm plates. The cells will be left to adhere to the plates overnight and the culture medium will be changed every other day. The confluent cells will be trypsinized, counted and plated to 24-well plate (5×10^4 cells/well). The cells will be washed and re-fed the next day (as day −2). Two days later (day 0), the cells will usually become confluent and be induced to differentiate with MDIR medium. On day 2, the medium will be changed to IR medium and re-fed every 2 days. Complete differentiation is usually achieved by day 10. On day 10, the medium will be changed to the culture medium of 10% FBS/DMEM with indicated drugs along with the positive and negative controls for 2 days. The media will be removed and the cells washed with 1 ml PBS per well three times. Then 100 μl lysis buffer will be used to lyse the cells at 4° C. for 1 hour. 30 μl culture medium, 30 μl cell lysates and 60 μl Steady-Glo® Reagent were added to a well of 96-well-plate and the luminescence will be measured using a luminometer. The protein concentration will be determined using 20 μl cell lysates and specific activity of luciferase will be tabulated and data analyzed.

white adipose tissue = test: High fat diet induced obesity mouse model; hematoxylin and eosin staining and UCP1 immunochemistry of adipose tissue; assay type: in vivo, mice; conditions: 50 mg/kg daily gavage, compared with control group
Experimental: 8-week-old male mice (57BL/6J) were housed in metabolism cages and maintained on a 12 h lightdark cycle at 23° C. and fed high fat diet (HFD) (21.9 kJ/g, 60% of energy as fat, 20% of energy as protein, 20% of energy as carbohydrate; D12492; Research Diet, New Brunswick, N.J., USA) for 8 weeks. Then, diets induced obese mice were randomized into two groups according to glucose levels and body weight and gavaged with daily indicated drugs (50 mg/kg) or vehicle. Food intake and body weight was measured weekly. All experiments with animals were approved by the Animal Care and Use Committee of Guangzhou Institute of Biomedicine and Health, Chinese Academy of Sciences.
Hematoxylin and eosin staining was performed as the standard protocol (see reference 15). As to the results, please see FIG. 1 (left panel) using compound 1 as the test compound.
Wash sections in dH2O three times for 5 minutes each. Incubate sections in 3% hydrogen peroxide for 10 minutes. Wash sections in dH2O twice for 5 minutes each, and then wash sections in wash buffer for 5 minutes. Block each section with 100-400 μl blocking solution for 1 hour at room temperature. Remove blocking solution and add 100-400 μl primary UCP1 antibody to each section. Incubate overnight at 4° C. Remove antibody solution and wash sections in wash buffer three times for 5 minutes each. […]

## COc1ccc(-c2csc(Nc3ccccn3)n2)cc1OC [Compound 1, 4-(3,4-dimethoxyphenyl)-N-(pyridin-2-yl)thiazol-2-amine]
Ucp1
  fold induction at 3 µM: 5.2
White adipose tissue; 16-week-old obese mice (57BL/6J) induced by high fat diet for 8 weeks
  browning of adipose tissue (hematoxylin and eosin staining and UCP1 immunochemistry): promotes browning of adipose tissue
White adipose tissue; 16-week-old obese mice induced by high fat diet for 8 weeks
  adipose tissue cell size and cell number: reduced cell size and increased cell number

Source: patent US10532987B2, “Compounds and methods for inducing browning of white adipose tissue” (GUANGZHOU INSTITUTES OF BIOMEDICINE AND HEALTH, CHINESE …, priority 2015, dated 2020)
